Data as given in patent publication US20180228711A1, “3-(4-HYDROXYPHENYL) PROPANOIC ACID AMIDE FOR USE IN TISSUE REPAIR AND/OR SKIN BRIGHTENING” (NMETICS IVS, priority 2015, published 2018).

How the values were obtained:
Assay type in all cases: cell-based
B10F16 mouse melanocytes = assay: skin de-pigmentation assay (cell pellet colour intensity)
Experimental: The assay was standardized using B10F16 mouse melanocytes with cell numbers at a density ranging from 5×10^4 to 1×10^5 cells per ml. […] The following day the cells were pre-treated with 80 μM of PA and 10 μM+control for 2 h, 24 h, 72 h and 96 h.
Cells were then collected, counted for cell number and equal numbers were pelleted. The cell pellet was visually observed for colour intensity and quantified. The same cell pellet was then used for protein extraction and immunoblot analysis.
Test solution preparation: Stock solutions of the test compound are prepared by dissolving in DMSO. The stock solutions were filter sterilized, stored in fridge at 4° C., and were used for experiments by dilution it in the cell culture medium as required.
Mouse melanocytes (B10F16 cell line) were maintained in Dulbecco's modified Eagle's medium (DMEM; Invitrogen) supplemented with 10% foetal bovine serum (v/v; Invitrogen), 2 mM glutamine, and 1% non-essential amino-acids.
Cells were sub-cultured at 37° C., 5% CO2 and 95% humidity, were fed approximately 16 h prior to each assay and cell number was determined in duplicates using a Coulter Z2 counter (Beckman Coulter). Mouse melanocytes were sub-cultured when they reached confluence at a split ratio 1:4.

fibroblast cells = assay: Boyden chamber chemotactic migration assay; details: PA treated vs controls; three independent assays
Experimental: 48-well Microchemotaxis Chamber Protocol
NOTE: The following directions assume that you are working with polycarbonate filters.
• 1. Adjust a variable-volume micropipette with a 1 mm tip so that the ejected liquid fills a bottom well. The well will hold 25 to 26 μL. A slight positive meniscus should form when the well is filled; this prevents air bubbles from being trapped when the filter is applied. • 2. Orient the bottom plate on a flat surface so that the NP trademark is at the upper left. Warm chemo-attractants or control reagents to about 37° C. and de-gas them by vortex or vacuum. Fill the bottom wells, completing the 48 wells in no more than 5 minutes, to prevent excessive evaporation. • 3. Cut 1 mm off the corner of a filter membrane and orient it with the cut corner at the upper left. Lift the filter by the ends with two forceps, hold it evenly over the filled wells, and lower it onto them, allowing the middle portion of the filter to make contact first. The filter position can be adjusted at this point if necessary, but note that too much movement will cause contamination between wells. • 4. Apply the silicone gasket with its cut corner at the upper left, then the top plate, aligning its NP trademark with the trademark on the bottom plate. […] With your free hand, apply and tighten the thumb nuts until finger tight.
• 1. […]

human fibroblast cells [1] = assay: uni-directional scratch assay (cell migration); details: fibroblasts pre-treated with PA 80 μM for three days; after 24 hrs
Experimental: Fibroblasts were pre-treated with PA (80 μM) for three days before performing the scratch assay.
(§1) Delicate cell monolayers at confluency are mechanically disrupted leaving an area devoid of cells. This procedure is accomplished by a “scrape” made on the cells and later advancement of the adjacent cells into the open area by cell mechanical migration, which is monitored by microscopy. Depending on the cell type, the covering process can take from many hours to less than a day, which is entirely dependent on the type of cells and extent of the scrape. The rate or the extent of migration of the cells (often termed as repopulation rate) can be calculated by a series of photomicrographs.
• Plate fibroblasts at a density 1×10^4 in 35 mm tissue culture plates and incubate for three days using novel test compounds with a control at 37° C., 5% CO2. • At confluency, displace a group of cells within the […] measure the scrape size at each time point. • Evaluate statistical significance by Student's t test. • Observe significant differences in scrape repairin PA pre-treatment on fibroblasts.

[2] = tested on: fibroblasts embedded in collagen lattice; assay: free floating collagen lattice contraction assay; details: PA pre-treated embedded fibroblasts; two independent experiments
Experimental: Collagen type I from bovine skin can be purchased from IBFB Pharma GmbH, Leipzig, Germany and is prepared according to the distributed protocols.
Cells are trypsinized, suspended in complete growth medium and carefully mixed in the collagen solution (collagen in 0.9×DMEM, 10% FCS, 0.2 mM NaOH, prepared at room temperature). Final cell concentrations might range from 0.8×10^4 to 3×10^5 cells/ml lattice. Final concentration of collagen might range from 0.3-0.6 mg/ml lattice.
After mixing, the solution is placed onto bacteriological Petri dishes and immediately put back into the incubator.
Half an hour after polymerization in the incubator, the lattices are carefully detached from the borders of the dishes using a pipette tip. It is important that the Free Floating Collagen Lattices “swim” freely in the medium.
Measurement of the diameter is performed at different time points depending on cell type and seeded cell number. Measurement can be done using a scale paper. From the diameter the area of the collagen lattice can be calculated and their size can be compared at different time points.
Production of collagen lattices: • Estimated time for 20 lattices=1 h conduction plus 1 h until medium addition. • Per assay, 20 empty 35 mm cell culture dishes were pre-warmed to 37° C. […]

human fibroblast cells [3] = assay: bi-directional scratch assay (cell migration); details: fibroblasts pre-treated with PA 80 μM for three days; bidirectional scratch
Experimental: Fibroblasts were pre-treated with PA (80 μM) for three days before performing the scratch assay. Migration was quantified by a micrometer scale (see FIG. 3).
as §1
• Plate fibroblasts at a density 1×10^4 in 35 mm tissue culture plates and incubate for three days using novel test compounds with a control at 37° C., 5% CO2. • At confluency, displace a group of cells within the monolayer by making one streak using a sterile pipette tip. • Photograph under phase contrast microscopy sequentially at an interval of 19 hrs post scraping. • Using an ocular micrometer measure the scrape size at each time point. • Evaluate statistical significance by Student's t test. • Observe significant differences in scrape repairin PA pre-treatment on fibroblasts.

| Compound | cell pellet colour, % lighter relative to −control (B10F16 mouse melanocytes; Hydroquinone at 10 μM, after 96 hrs) | enhancement of chemotactic migration towards chemo-attractants (factor) (fibroblast cells) | colour change of cell pellet (inhibition of melanin production) (B10F16 mouse melanocytes; PA 80 μM, visual observation) | cell pellet colour, % lighter relative to −control (B10F16 mouse melanocytes; compound at 80 μM, after 96 hrs) | cell pellet colour, % lighter relative to +control (B10F16 mouse melanocytes; compound at 80 μM, after 96 hrs, relative to hydroquinone 10 μM) | enhancement of migration (tissue repair) in vitro, uni-directional cell migration (human fibroblast cells [1]) | improvement of collagen contraction [2] | improvement of tissue migration over the untreated (human fibroblast cells [3]) |
| --- | --- | --- | --- | --- | --- | --- | --- | --- |
| Oc1ccc(O)cc1 [+C, Hydroquinone, reference compound] | 78% lighter (78% relative to −control) | – | – | – | – | – | – | – |
| NC(=O)CCc1ccc(O)cc1 [PA, 3-(4-hydroxyphenyl)propanoic acid amide] | – | 2.7 | distinct color change from dark to pale | 50% lighter (relative to − control) | 39% lighter (relative to +control) | more than 60% | 85% | about 37% |
